Series [1] deals with A2780 ovarian cancer cells. Description: GI50 determination, SRB assay. It counts as cell-based, human. Conditions: for GI50: 96 hours, read-out: Mean GI50 (μM) A2780 SRB Assays. Here is the method:
GI50 determination assays
Cell culture: The RPE-1 retinal pigment epithelial, A2780 human ovarian carcinoma, and A2780 CisR cisplatin resistant human ovarian carcinoma cell lines were donated with thanks from the Institute of Cancer Research. The A2780 and A2780 CisR cell lines were cultured in IMDM supplemented with 10 % FBS at 37 °C and 5 % CO2, while the RPE-1 cell line was cultured in a 1:1 mixture of Dulbecco's Modified Eagle Medium and Ham’s F-12 Nutrient Mixture (DMEM/F-12) at 37 °C and 5 % CO2.
SRB assay: Cells were seeded into 96-well plates at 800 cells per well/cpw (A2780), 1600 cpw (A2780 CisR) or 400 cpw (RPE-1) in cell culture medium and cultured for 48 hours followed by addition of each compound over an eight-point concentration range (each concentration in triplicate). Plates were then cultured for a further 96 hours, after which the cell culture […]
medium was removed from each well and the cells fixed with addition of 70 µL/well of 10 % (w/v) trichloroacetic acid (TCA) in distilled water followed by incubation for 30 minutes at RT.
Each plate was then washed with distilled water five times before addition of 70 µL SRB dye (0.4 % (w/v) SRB dye (ThermoFisher Scientific, USA) solubilised in 1 % (v/v) acetic acid/ dH2O) and incubat ed for 30 minutes at RT, followed by washing three times with 1 % (v/v) acetic acid and drying in a 37 °C oven overnight. Once dry, 100 μl of 10 mM Tris -base (ThermoFisher Scientific, USA) was added to each well and plates put on a microplate shaker for 10 minutes at 200 rpm to solubilize the dye. Absorbance values were then read at wavelength 490 nm on a Victor X4 multi-label plate reader (PerkinElmer Life Sciences, USA), data analysed using Microsoft Excel and graphs produced using GraphPad Prism 9.0 and the GI50 value calculated.
Solutions and compo und preparation: All solvents and starting materials were purchased from known chemical suppliers. Compound stock solutions were prepared in DMSO. Buffer […]
500 mM. Buffer B consisted of Na2SO4 (167 mM) and NaOAc (5 mM) with a pH of 5.5 and an ionic strength of 500 mM.
Vesicle formation: Giant unilamellar Vesicles (GUVS) were prepared through the electro formation method using a Nanion VesiclePrepPro. A solution of 1,2-diphytanoyl-sn-glycero-3-phosphocholine (DPhPC) (10 mM) with 10 % cholesterol in chloroform (20 µL) was deposited onto an ITO coated glass surface (surface coated glass slide) and allowed to evaporate to create a dehydrated thin lipid film. A greased O-ring was then placed around the dehydrated lipid film to create a seal. This volume was then filled with a sucrose solution (275 µL, 200 mM) and then sealed with a second ITO coated glass slide. An AC current (3 V/5 Hz) was then applied. After 2 hrs, the voltage and frequency were reduced in steps over 30 mins to 1.6 V/1 Hz and held for 1 hr before being reduced to 0 V/0 Hz over a further 30 min […]
Patch clamp measurements: Experiments were performed using a Port-a-Patch system (Nanion Technologies) with borosilicate glass chips that contain an aperture diameter of approximately 1 µm. Buffer A (5 µL) was placed on the underside of the chip over the aperture, The chip was then placed into the port-a-patch system. Buffer A (15 µL) was then added to the top of the chip and 5 µL of the GUV stock solution added. The GUVS were the positioned over the aperture in the chip by application of negative pressure (-30 mbar).
When a GUV is positioned over the aperture in the chip, it bursts, leaving a planar bilayer as a seal. The negative pressure is then removed, leaving the planar bilayer in place over the aperture. The external buffer A was the exchanged with buffer B, through four simultaneous […]
buffer exchanges (4 x 15 µL). […]
= 30 s, to give a final experimental concentration of 0.1 – 1 mM as appropriate. The number of sweeps was set to 1000, the sweep interval to 0.00 s, sample interval to 1.00 ms and the protocol was run for a total of 5 mins. Each experiment was repeated a minimum of three time to ensure reproducibility.

The nature of series [2]: 1H NMR titration, host:guest association. Conditions: 1:1 binding isotherm, DMSO-d6 0.5% H2O, 298 K, guest as TBA salt. From the text:
Here H2PO4^- was used to model the phosphate present in the phospholipid headgroup, while Cl^- was incorporated into these studies as a common biologically relevant anion. […] Summary […] using Bindfit v0.5,1 conducted in DMSO-d6/0.5 % H2O at 298 K. Anionic guest species were supplied as the TBA salt. Data was fitted to both 1:1, 1:2 and 2:1 binding isotherm. […] 94

In the next series the test system is S. aureus 1199B. Description: microbe, parasite or virus in culture. The settings on record: for MIC: Staphylococcus aureus, 1199B; for MIC (mM) S. aureus 1199B: lowest concentration with no visible growth; for MIC 1199B: total molecular concentration. The format is cell-based, Staphylococcus aureus. The method, then: Next generation SSAs 3, 5, 7, and 9 were specifically designed to increase the activity of SSAs against both drug susceptible and resistant S. aureus and ovarian cancer cells. […] These strains include: (i) USA300, a common clinically relevant, methicillin resistant strain;[47] […]
(§1) Section S3: Biological methods […]
Preparation of bacterial plates : Sterile TSB agar plates were streaked using the desired […]
(§2) Preparation of inoculum: An initial culture was made up by inoculating TSB (5 mL) with 3 single colonies of the desired bacteria under sterile conditions and incubated at 37 °C overnight. The optical density at 600 nm (OD 600) was adjusted using sterile distilled H 2O (dH2O) to equal ~1 x 10^6 bacteria/mL.
(§3) Preparation of 96 -well microplate : A solution of each compound in H2O/5 % EtOH was made […]
The compound solution (200 […]
µL) was added to and diluted 50:50 down the plate. The bacterial suspension (100 µL) was dispensed into each well under sterile conditions. […]

A further series concerns E. Faecalis NCTC 775. Description: MIC assay. Conditions: for MIC: Enterococcus faecalis, NCTC775, lowest concentration with no visible growth. The format is cell-based, Enterococcus faecalis. The method, then:
as §1
Preparation of bacterial plates : Sterile TSB agar plates were streaked using the desired bacteria [Staphylococcus aureus (9144, 13616, USA 300 and 1199B ), Enterococcus faecalis (NCTC 775 and 12201 ) and Enterococcus faecium (NCTC 12204)] and incubated at 37 °C […]
as §2, §3
. The compound solution (200
[…]. The bacterial suspension (100 µL) was dispensed into each well under sterile conditions. The plates were sealed using parafilm and incubated at 37 °C for 20 hours, after which the OD 600 was measured.

Series [3] in a line: Quantitative 1H NMR, DMSO-d6 1% DCM (self-association). The format is physicochemical. The settings on record: 112 mM, 298 K, proportion NMR silent. The text has this:
Initially, quantitative (Q) ^1H NMR spectroscopy experiments were undertaken in DMSO-d6 1% DCM, using the DCM as an internal standard to identify the presence of either low or high order SSA self-associated aggregates. Here, low-order SSA self-associated aggregates are defined as those directly observable using traditional solution state ^1H NMR spectroscopy such as the formation of hydrogen bonded anionic dimers. To determine the presence of low or high-order SSA aggregates, signals corresponding to the anionic or cationic component of the SSA are integrated against those of the internal DCM standard.

Setting [4] is: 15 h, read-out: MIC 1199B, total molecular concentration, after 900 min.
The mark [5] stands for this setting: read-out: MIC (mM) S. aureus 1199B, lowest concentration with no visible growth.

≈ marks a conversion by molar mass, not a printed value. Where “and” joins values, the source holds several entries; their conditions need not be identical. Equal values may be shown once. Read-outs that look alike come from different tables or passages of the source.

For orientation: GI50 means the concentration giving 50% growth inhibition. Consider `O=C(Nc1ccc(C(F)(F)F)cc1)N[C@H](Cc1ccccc1)C(=O)O` [SSA 9], for which the concentration for 50% growth inhibition (GI50) in series [1] (Homo sapiens, A2780, 96 h) was 105 µM. Moreover, the “selectivity for the cancer cells over the RPE-1 cells” value in series [1] (no impact on RPE-1 cell growth at 350 µM) is recorded as “≥ two-fold”. The “Ka / Kass (M-1), guest Cl-” value in series [2] is recorded as “No evidence of host: guest complex formation detected”. For the same compound, the MIC in the series with S. aureus 1199B (setting [4]) is 0.174 mM (≈ 61.3 µg/mL); with S. aureus 1199B (setting [5]), 0.174 mM (≈ 61.3 µg/mL); with E. Faecalis NCTC 775, 2.78 mM (≈ 979 µg/mL). Also, the “Q NMR (%) SSA anion” value in series [3] is given as 0%. Also, the “Q NMR (%) SSA cation” value in series [3] was 0%.

For `O=C(O)CNC(=O)Nc1ccc(C(F)(F)F)cc1` [SSA 1], the GI50 in series [1] (Homo sapiens, A2780, 96 h) turned out to be 117 µM. Also, the “Ka / Kass (M-1), guest Cl-” value in series [2] was 4.33 M⁻¹. The “Ka / Kass (M-1), guest H2PO4-” value in series [2] amounted to 12.59 M⁻¹. The MIC in the series with S. aureus 1199B (setting [4]), with S. aureus 1199B (setting [5]) and in the series with E. Faecalis NCTC 775 was above 2.78 mM each time.

On to `CC(C)CC(NC(=O)Nc1ccc(C(F)(F)F)cc1)C(=O)O` (stereo not shown) [SSA 5], for which the GI50 in series [1] worked out at 231 µM. Further, in series [2], the “Ka / Kass (M-1), guest Cl-” value was “No evidence of host: guest complex formation detected”. The “MIC (mM) S. aureus 1199B” value with S. aureus 1199B (listed as 5) was 2.780 mM (≈ 885 µg/mL). In addition, the “MIC 1199B” value against S. aureus 1199B (after 900 min, listed as 5) came to 2780 µM (≈ 885 µg/mL). Moreover, in the series on E. Faecalis NCTC 775 (lowest concentration with no visible growth, listed as 5), the “MIC (mM) E. Faecalis NCTC 775” value was found to be 2.780 mM (≈ 885 µg/mL).

As for `O=C(Nc1ccc(C(F)(F)F)cc1)N[C@@H](Cc1ccccc1)C(=O)O` [SSA 7], the concentration for 50% growth inhibition (GI50) in series [1] (Homo sapiens, A2780, 96 h) stood at 178 µM. Besides, the “Ka / Kass (M-1), guest H2PO4-” value in series [2] is 30.27 M⁻¹ and 30 M⁻¹. Further, the results for the MIC with S. aureus 1199B (setting [4]), in the series on S. aureus 1199B (setting [5]) and in the series with E. Faecalis NCTC 775 were 0.174 mM (≈ 61.3 µg/mL), 0.174 mM (≈ 61.3 µg/mL) and above 2.78 mM, respectively. The “Q NMR (%) SSA anion” value in series [3] was determined as 0%. Besides, the “Q NMR (%) SSA cation” value in series [3] is recorded as 0%.

With `CC(C)CC(NC(=O)Nc1ccc(C(F)(F)F)cc1)C(=O)O` (stereo not shown) [SSA 3], in series [1] (Homo sapiens, A2780, 96 h), the GI50 came out at 171 µM. Further, in series [2], the “Ka / Kass (M-1), guest Cl-” value was “No evidence of host: guest complex formation detected” and the “Ka / Kass (M-1), guest H2PO4-” value was “No evidence of host: guest complex formation detected”. Further, the “MIC (mM) S. aureus 1199B” value in the series with S. aureus 1199B (listed as 3) amounted to 0.087 mM (≈ 27.7 µg/mL). The “MIC 1199B” value with S. aureus 1199B (after 900 min, listed as 3) was determined as 87 µM (≈ 27.7 µg/mL). Moreover, the MIC in the series on E. Faecalis NCTC 775 was above 2.78 mM. In series [3], the “Q NMR (%) SSA anion” value amounted to 0% and the “Q NMR (%) SSA cation” value is recorded as 0%.

For the origin of these results see paper PMC12973313 (Chemical Science, 2026).
